Where two headings read alike, the source gives them in different places.
Tests used:
[1] = tested on: Aberrant crypt foci (ACF); test: Aberrant crypt foci (ACF) induced by 1,2-dimethylhydrazine in rats; format: in vivo; conditions: DMH-induced ACF, Sprague-Dawley rats; equivalent anti-inflammatory doses, twice daily orogastric gavage for 3 weeks
Procedure: Aberrant crypt foci (ACF) were induced in Sprague-Dawley rats by using 1,2-dimethylhydrazine (DMH). Test agents or vehicle were then administered for 3 weeks, twice daily through orogastric gavage.
At the end of this period, the number and multiplicity of ACF were determined.

Caco 2 cells = test: Anti-proliferative activity in Caco 2 cells; format: cell-based
Procedure: In order to analyze sulindac derivatives in combination therapies for treatment of colon cancer, the compound of example 4 was tested in Caco 2 cell lines comparatively with other known therapeutic agents at different concentrations.
The results of the treatment with 5-FU, celecoxib and docetaxel in Caco 2 cell are depicted in the Table 3 below reported.
In another experiment the compound of example 4 at IC50 concentration was incubated with submaximal concentrations of the anti-tumoral standard agents.

[2] = Five-day oral safety study in rats (deaths, gastrointestinal ulcers at autopsy); format: in vivo; conditions: male rats, once daily by gavage for five days; sulindac sulfoxide 20 mg/kg, compound example 1 36 mg/kg
Procedure: Thirty male rats (150-200 g) were divided into three groups of 10 animals/group and treated with vehicle, sulindac sulfoxide (20 mg/kg) and the compound example 1 (36 mg/kg) for five days once daily by gavage.
At the fifth day survival animals were sacrificed 6 hr after the treatment by an overdose of ether, and autopsied to detect any pathological changes, particularly in the gastrointestinal tract.

IC50 (Caco 2 cells; Homo sapiens) [µM] | Compound | reduction of the number of ACF [1] [%] | also measured
– | CC1=C(CC(=O)O)c2cc(F)ccc2/C1=C\c1ccc(S(C)(=O)=O)cc1 [sulindac sulfone, (Z)-5-Fluoro-2-methyl-1-[[4-(methylsulfone)phenyl]methylene]-1H-indene-3-acetic acid] | 36 | –
55 | CC1=C(CC(=O)OCCSS(C)(=O)=O)c2cc(F)ccc2/C1=C\c1ccc([S+](C)[O-])cc1 (centres unmarked) [Example 4, (Z)-5-Fluoro-2-methyl-1-[[4-(methylsulfinyl)phenyl]methylene]-1H-indene-3-acetic acid 2-methanesulfonylsulfanylethyl ester] | – | anti-proliferative activity in combination with anti-tumoral standard agents (Caco 2 cells; compound at IC50 concentration incubated with submaximal concentrations of standard agents): marked potentiation
60 | Cc1ccc(-c2cc(C(F)(F)F)nn2-c2ccc(S(N)(=O)=O)cc2)cc1 [celecoxib] | 22 | –
– | O=c1[nH]cc(F)c(=O)[nH]1 [Example 5-FU] | – | IC50 (Caco 2 cells): 28 µM
– | CC1=C(CC(=O)O)c2cc(F)ccc2/C1=C\c1ccc([S+](C)[O-])cc1 (centres unmarked) [Sulindac sulfoxide, (Z)-5-Fluoro-2-methyl-1-[[4-(methylsulfinyl)phenyl]methylene]-1H-indene-3-acetic acid] | 46 | % deaths [2]: 70%; % gastrontestinal ulcers [2]: 100%
– | CC1=C(CC(=O)Oc2ccc(-c3cc(=S)ss3)cc2)c2cc(F)ccc2/C1=C\c1ccc([S+](C)[O-])cc1 (centres unmarked) [Example 1, (Z)-5-Fluoro-2-methyl-1-[[4-(methylsulfinyl)phenyl]methylene]-1H-indene-3-acetic acid 4-(thioxo-5H-1-[1,2]dithiol-3-yl)-phenyl ester] | – | % deaths [2]: 0%; % gastrontestinal ulcers [2]: 10%
– | CC1=C(CC(=O)Oc2ccc(-c3cc(=S)ss3)cc2)c2cc(F)ccc2/C1=C\c1ccc(S(C)(=O)=O)cc1 [Example 3, (Z)-5-Fluoro-2-methyl-1-[[4-(methylsulfone)phenyl]methylene]-1H-indene-3-acetic acid 4-(thioxo-5H-[1,2]dithiol-3-yl)-phenyl ester] | 45 | –
– | CC1=C(CC(=O)OCCSS(C)(=O)=O)c2cc(F)ccc2/C1=C\c1ccc(S(C)(=O)=O)cc1 [Example 8, (Z)-5-Fluoro-2-methyl-1-[[4-(methylsulfone)phenyl]methylene]-1H-indene-3-acetic acid 2-methanesulfonylsulfanylethyl ester] | 60 | –
0.005 | CC(=O)O[C@@]12CO[C@@H]1C[C@H](O)[C@@]1(C)C(=O)[C@H](O)C3=C(C)[C@@H](OC(=O)[C@H](O)[C@@H](NC(=O)OC(C)(C)C)c4ccccc4)C[C@@](O)([C@@H](OC(=O)c4ccccc4)[C@H]21)C3(C)C [Docetaxel] | – | –
